According to patent publication US20080221134A1, “8-ALKYNYLXANTHINES AND DERIVATIVES” (priority 2006, published 2008):

What was measured:
Adenosine A2B = target: T1, Adenosine A2B (Homo sapiens, UniProt P29275); assay: Radioligand binding assay 2, Adenosine A2B; conditions: at 1 μmol/l; human recombinant HEK-293 cells, [3H]MRS 1754; read-out: A2B AR % inhibition of agonist binding
T1 construct: expressed in transfected cells; host or cells: HEK-293 cells
T1 sequence (P29275 1-332): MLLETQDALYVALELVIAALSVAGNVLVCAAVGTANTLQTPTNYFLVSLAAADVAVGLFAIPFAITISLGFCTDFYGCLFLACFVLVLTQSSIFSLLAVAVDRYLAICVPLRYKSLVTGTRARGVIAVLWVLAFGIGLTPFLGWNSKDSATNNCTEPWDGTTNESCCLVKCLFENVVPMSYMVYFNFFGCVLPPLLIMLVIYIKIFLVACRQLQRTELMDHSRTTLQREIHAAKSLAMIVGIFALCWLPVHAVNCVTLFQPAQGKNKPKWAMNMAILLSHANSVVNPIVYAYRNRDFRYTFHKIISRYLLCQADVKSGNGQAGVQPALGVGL
Method: (§1) The assays were performed under the conditions described below. The literature references are also provided for each assay:
The adenosine A2B radioligand binding assay used is further described in Stehle J. H. et al., Mol. Endocrinol., 1992, 6, 384 and is incorporated herein by reference.
(§2) The specific ligand binding to the receptors is defined as the difference between the total binding and the non-specific binding determined in the presence of an excess of unlabelled ligand. The results are expressed as a percent of control specific binding and as percent inhibition of control specific binding obtained in the presence of the test compounds.

Adenosine A3 = target: T2, Adenosine A3 (Homo sapiens, UniProt P0DMS8); assay: Radioligand binding assay 2, Adenosine A3; conditions: at 1 μmol/l; human recombinant HEK-293 cells, [125I]AB-MECA; read-out: A3 AR % inhibition of agonist binding
T2 construct: expressed in transfected cells; host or cells: HEK-293 cells
T2 sequence (P0DMS8 1-318): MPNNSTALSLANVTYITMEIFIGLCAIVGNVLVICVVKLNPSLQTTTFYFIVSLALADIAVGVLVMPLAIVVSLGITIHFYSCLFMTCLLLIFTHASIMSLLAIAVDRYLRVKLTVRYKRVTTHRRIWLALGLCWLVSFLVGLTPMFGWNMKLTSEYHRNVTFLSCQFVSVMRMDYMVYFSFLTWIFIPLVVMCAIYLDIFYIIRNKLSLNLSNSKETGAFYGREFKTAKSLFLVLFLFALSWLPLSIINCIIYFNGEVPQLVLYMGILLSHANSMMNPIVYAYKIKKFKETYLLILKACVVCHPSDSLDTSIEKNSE
Method: as §1
The adenosine A3 radioligand binding assay used is further described in Salvatore C. A. et al., Proc. Natl. Acad. Sci. USA, 1993, 90, 10365 and is incorporated herein by reference.
as §2

Adenosine A1 = target: T3, Adenosine A1 (Homo sapiens, UniProt P30542); assay: Radioligand binding assay 2, Adenosine A1; parameters: expressed in transfected cells; host or cells: CHO cells; conditions: at 1 μmol/l; human recombinant CHO cells, [3H]CCPA; read-out: A1 AR % inhibition of agonist binding
T3 sequence (P30542 1-326): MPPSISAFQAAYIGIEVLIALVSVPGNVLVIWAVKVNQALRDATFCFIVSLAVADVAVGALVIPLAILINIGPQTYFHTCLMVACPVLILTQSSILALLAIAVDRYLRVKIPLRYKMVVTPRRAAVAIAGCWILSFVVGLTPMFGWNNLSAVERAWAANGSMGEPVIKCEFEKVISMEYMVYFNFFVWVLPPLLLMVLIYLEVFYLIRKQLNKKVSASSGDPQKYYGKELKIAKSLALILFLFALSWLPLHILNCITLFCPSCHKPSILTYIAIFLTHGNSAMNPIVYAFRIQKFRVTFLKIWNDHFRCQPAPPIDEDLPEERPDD
Method: as §1
The adenosine A1 radioligand binding assay used is further described in Rivkees S. A. et al., J. Biol. Chem., 1995, 270, 20485 and is incorporated herein by reference.
as §2

Adenosine A2A = Adenosine A2A (Homo sapiens, UniProt P29274); assay: Radioligand binding assay 2, Adenosine A2A; parameters: expressed in transfected cells; host or cells: HEK-293 cells; conditions: at 1 μmol/l; human recombinant HEK-293 cells, [3H]CGS 21680; read-out: A2A AR % inhibition of agonist binding
Method: as §1
The adenosine A2A radioligand binding assay used is further described in Luthin D. R. et al., Mol. Pharmacol., 1995, 47 and is incorporated herein by reference.
as §2

MAO-B = target: T4, MAO-B (Homo sapiens, UniProt P27338); assay: MAO-B inhibition; type: biochemical
T4 sequence (P27338 1-520): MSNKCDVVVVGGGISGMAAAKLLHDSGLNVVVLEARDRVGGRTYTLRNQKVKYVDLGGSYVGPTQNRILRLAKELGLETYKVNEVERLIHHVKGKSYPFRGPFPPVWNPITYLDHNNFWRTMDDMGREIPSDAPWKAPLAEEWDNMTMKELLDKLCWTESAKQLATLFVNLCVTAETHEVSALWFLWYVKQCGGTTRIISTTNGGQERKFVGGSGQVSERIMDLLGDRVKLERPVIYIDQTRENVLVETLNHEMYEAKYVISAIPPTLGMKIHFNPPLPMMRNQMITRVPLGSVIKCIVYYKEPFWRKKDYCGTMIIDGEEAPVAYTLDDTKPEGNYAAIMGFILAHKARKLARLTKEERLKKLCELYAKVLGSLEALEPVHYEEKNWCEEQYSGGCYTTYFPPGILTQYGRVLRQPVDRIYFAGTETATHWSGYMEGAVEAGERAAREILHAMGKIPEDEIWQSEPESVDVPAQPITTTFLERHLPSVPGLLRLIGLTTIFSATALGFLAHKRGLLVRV

Chain of Adenosine A2A (P29274 whole entry): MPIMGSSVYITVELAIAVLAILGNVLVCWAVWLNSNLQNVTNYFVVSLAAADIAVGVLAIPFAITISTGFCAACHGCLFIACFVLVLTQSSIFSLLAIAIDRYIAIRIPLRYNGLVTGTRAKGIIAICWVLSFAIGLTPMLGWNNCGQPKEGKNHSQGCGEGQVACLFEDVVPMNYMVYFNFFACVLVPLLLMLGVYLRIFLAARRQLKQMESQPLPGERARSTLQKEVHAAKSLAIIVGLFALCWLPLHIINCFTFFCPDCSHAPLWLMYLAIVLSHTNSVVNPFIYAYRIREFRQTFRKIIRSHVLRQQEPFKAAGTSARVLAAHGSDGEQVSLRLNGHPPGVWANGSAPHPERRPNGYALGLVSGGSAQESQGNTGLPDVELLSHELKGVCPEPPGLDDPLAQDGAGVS

C#CCn1c(=O)c2c(nc(C#Cc3cccc(OC)c3)n2C)n(C)c1=O [drawing 607]
inhibition at 1 µM (Adenosine A2B): 19% | inhibition at 1 µM (Adenosine A3): 24% | inhibition at 1 µM (Adenosine A1): 5% | inhibition at 1 µM (Adenosine A2A): 81%

C#CCn1c(=O)c2c(nc(C#Cc3ccc(OC)c(OC)c3)n2C)n(CC)c1=O [drawing 608]
inhibition at 1 µM (Adenosine A2B): 14% | inhibition at 1 µM (Adenosine A3): 38% | inhibition at 1 µM (Adenosine A1): 4% | inhibition at 1 µM (Adenosine A2A): 95%

C#CCn1c(=O)c2c(nc(C#Cc3cccc(OC)c3)n2C)n(CCCO)c1=O [drawing 611]
inhibition at 1 µM (Adenosine A2B): 6% | inhibition at 1 µM (Adenosine A3): 37% | inhibition at 1 µM (Adenosine A1): 41% | inhibition at 1 µM (Adenosine A2A): 93%

C#CCn1c(=O)c2c(nc(C#Cc3cccc(Br)c3)n2C)n(C)c1=O [8-(3-bromophenylethynyl)-3,7-dimethyl-1-prop-2-ynyl-3,7-dihydropurine-2,6-dione]
Mao-B-inhibition values (MAO-B): submikromolar range

C#CCn1c(=O)c2c(nc(C#Cc3ccc(OC)c(OC)c3)n2C)n(CCCO)c1=O [drawing 612]
inhibition at 1 µM (Adenosine A2B): 14% | inhibition at 1 µM (Adenosine A3): 36% | inhibition at 1 µM (Adenosine A1): 34% | inhibition at 1 µM (Adenosine A2A): 97%

C#CCn1c(=O)c2c(nc(C#Cc3cccc(OC)c3)n2CC#C)n(C)c1=O [drawing 610]
inhibition at 1 µM (Adenosine A2B): 22% | inhibition at 1 µM (Adenosine A3): 37% | inhibition at 1 µM (Adenosine A1): 24% | inhibition at 1 µM (Adenosine A2A): 86%

C#CCn1c(=O)c2c(nc(C#Cc3cccc(O)c3)n2C)n(C)c1=O [8-(3-Hydroxyphenylethynyl)-3,7-dimethyl-1-prop-2-ynyl-3,7-dihydropurine-2,6-dione]
melting point: 271 °C

C#CCn1c(=O)c2c(nc(C#Cc3ccc(OC)c(OC)c3)n2C)n(C)c1=O [drawing 609]
inhibition at 1 µM (Adenosine A2B): 19% | inhibition at 1 µM (Adenosine A3): 16% | inhibition at 1 µM (Adenosine A1): 10% | inhibition at 1 µM (Adenosine A2A): 85%

C#CCn1c(=O)c2c(nc(C#Cc3cccc(Cl)c3)n2C)n(C)c1=O [8-(3-chlorophenylethynyl)-3,7-dimethyl-1-prop-2-ynyl-3,7-dihydropurine-2,6-dione]
Mao-B-inhibition values (MAO-B): submikromolar range

C#CCn1c(=O)c2c(nc(C#Cc3cccc(C)c3)n2C)n(CCCO)c1=O [drawing 613]
inhibition at 1 µM (Adenosine A2B): 17% | inhibition at 1 µM (Adenosine A3): 54% | inhibition at 1 µM (Adenosine A1): 43% | inhibition at 1 µM (Adenosine A2A): 92%

C#CCn1c(=O)c2c(nc(C#Cc3cccc(OC(C)=O)c3)n2C)n(C)c1=O [8-(3-Acetoxyphenylethynyl)-3,7-dimethyl-1-prop-2-ynyl-3,7-dihydropurine-2,6-dione]
melting point: 238 °C
